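Where inhibition never reached the appropriate level, the endpoint shown equals the highest concentration tested. Otherwise, values were interpolated linearly from a five-concentration, 48-hour dose response in 96-well plates. Definition used: TGI = concentration required for complete inhibition of growth.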
Key:
Assay in all cases: NCI anticancer screen, dose series, 48 h
SR leukemia = test system: SR leukemia
SK-MEL-28 melanoma = test system: SK-MEL-28 melanoma
HL-60(TB) leukemia = test system: HL-60(TB) leukemia
SF-295 CNS = test system: SF-295 CNS
UO-31 renal = test system: UO-31 renal
SN12C renal = test system: SN12C renal
786-0 renal = test system: 786-0 renal
UACC-257 melanoma = test system: UACC-257 melanoma
DMS 273 small cell lung = test system: DMS 273 small cell lung
NCI-H522 lung = test system: NCI-H522 lung
MALME-3M melanoma = test system: MALME-3M melanoma
OVCAR-5 ovarian = test system: OVCAR-5 ovarian
NCI-H23 lung = test system: NCI-H23 lung
SW-620 colon = test system: SW-620 colon
SNB-19 CNS = test system: SNB-19 CNS
TK-10 renal = test system: TK-10 renal
HCC-2998 colon = test system: HCC-2998 colon
CCRF-CEM leukemia = test system: CCRF-CEM leukemia
SK-MEL-2 melanoma = test system: SK-MEL-2 melanoma
U251 CNS = test system: U251 CNS
M19-MEL melanoma = test system: M19-MEL melanoma
K-562 leukemia = test system: K-562 leukemia
A549 NSCLC = test system: A549 NSCLC
RPMI-8226 leukemia = test system: RPMI-8226 leukemia
KM12 colon = test system: KM12 colon
HT29 colon = test system: HT29 colon
HCT-15 colon = test system: HCT-15 colon
LOX IMVI melanoma = test system: LOX IMVI melanoma
NCI-H460 lung = test system: NCI-H460 lung
HOP-62 NSCLC = test system: HOP-62 NSCLC
HOP-18 NSCLC = test system: HOP-18 NSCLC
OVCAR-4 ovarian = test system: OVCAR-4 ovarian
SF-268 CNS = test system: SF-268 CNS
M14 melanoma = test system: M14 melanoma
OVCAR-8 ovarian = test system: OVCAR-8 ovarian
SNB-78 CNS = test system: SNB-78 CNS
HCT-116 colon = test system: HCT-116 colon
EKVX NSCLC = test system: EKVX NSCLC
MOLT-4 leukemia = test system: MOLT-4 leukemia
ACHN renal = test system: ACHN renal
XF 498 CNS = test system: XF 498 CNS
OVCAR-3 ovarian = test system: OVCAR-3 ovarian
CAKI-1 renal = test system: CAKI-1 renal
SF-539 CNS = test system: SF-539 CNS
NCI-H226 lung = test system: NCI-H226 lung
COLO 205 colon = test system: COLO 205 colon
SK-MEL-5 melanoma = test system: SK-MEL-5 melanoma
SNB-75 CNS = test system: SNB-75 CNS
KM20L2 colon = test system: KM20L2 colon
SK-OV-3 ovarian = test system: SK-OV-3 ovarian
UACC-62 melanoma = test system: UACC-62 melanoma
IGROV1 ovarian = test system: IGROV1 ovarian
DMS 114 small cell lung = test system: DMS 114 small cell lung
LXFL 529 NSCLC = test system: LXFL 529 NSCLC
HOP-92 NSCLC = test system: HOP-92 NSCLC
DLD-1 colon = test system: DLD-1 colon
A498 renal = test system: A498 renal

## Cc1cc(N)c(C)c2c1[nH]c1ccc(O)cc12
SR leukemia
  TGI: > 100 µM
SK-MEL-28 melanoma
  TGI: > 100 µM
HL-60(TB) leukemia
  TGI: > 100 µM
SF-295 CNS
  TGI: > 100 µM
UO-31 renal
  TGI: > 100 µM
SN12C renal
  TGI: > 100 µM
786-0 renal
  TGI: > 100 µM
UACC-257 melanoma
  TGI: > 100 µM
DMS 273 small cell lung
  TGI: > 100 µM
NCI-H522 lung
  TGI: 41.1 µM
MALME-3M melanoma
  TGI: > 100 µM
OVCAR-5 ovarian
  TGI: > 100 µM
NCI-H23 lung
  TGI: > 100 µM
SW-620 colon
  TGI: > 100 µM
SNB-19 CNS
  TGI: > 100 µM
TK-10 renal
  TGI: > 100 µM
HCC-2998 colon
  TGI: > 100 µM
CCRF-CEM leukemia
  TGI: 91.5 µM
SK-MEL-2 melanoma
  TGI: > 100 µM
U251 CNS
  TGI: > 100 µM
M19-MEL melanoma
  TGI: > 100 µM
K-562 leukemia
  TGI: > 100 µM
A549 NSCLC
  TGI: > 100 µM
RPMI-8226 leukemia
  TGI: > 100 µM
KM12 colon
  TGI: > 100 µM
HT29 colon
  TGI: > 100 µM
HCT-15 colon
  TGI: > 100 µM
LOX IMVI melanoma
  TGI: > 100 µM
NCI-H460 lung
  TGI: > 100 µM
HOP-62 NSCLC
  TGI: > 100 µM
HOP-18 NSCLC
  TGI: > 100 µM
OVCAR-4 ovarian
  TGI: > 100 µM
SF-268 CNS
  TGI: > 100 µM
M14 melanoma
  TGI: > 100 µM
OVCAR-8 ovarian
  TGI: > 100 µM
SNB-78 CNS
  TGI: > 100 µM
HCT-116 colon
  TGI: > 100 µM
EKVX NSCLC
  TGI: > 100 µM
MOLT-4 leukemia
  TGI: > 100 µM
ACHN renal
  TGI: > 100 µM
XF 498 CNS
  TGI: > 100 µM
OVCAR-3 ovarian
  TGI: > 100 µM
CAKI-1 renal
  TGI: > 100 µM
SF-539 CNS
  TGI: > 100 µM
NCI-H226 lung
  TGI: > 100 µM
COLO 205 colon
  TGI: > 100 µM

## N#CC(N)(C(=O)CCC(=O)Nc1cccc(Cl)c1)c1ccc(Cl)cc1 (stereo unspecified)
SR leukemia
  TGI: > 100 µM
SK-MEL-5 melanoma
  TGI: > 100 µM
SK-MEL-28 melanoma
  TGI: > 100 µM
HL-60(TB) leukemia
  TGI: > 100 µM
SF-295 CNS
  TGI: > 100 µM
UO-31 renal
  TGI: > 100 µM
SN12C renal
  TGI: > 100 µM
786-0 renal
  TGI: > 100 µM
UACC-257 melanoma
  TGI: > 100 µM
DMS 273 small cell lung
  TGI: > 100 µM
SNB-75 CNS
  TGI: > 100 µM
NCI-H522 lung
  TGI: > 100 µM
MALME-3M melanoma
  TGI: > 100 µM
KM20L2 colon
  TGI: > 100 µM
NCI-H23 lung
  TGI: > 100 µM
SW-620 colon
  TGI: > 100 µM
SNB-19 CNS
  TGI: > 100 µM
TK-10 renal
  TGI: > 100 µM
SK-OV-3 ovarian
  TGI: > 100 µM
UACC-62 melanoma
  TGI: > 100 µM
CCRF-CEM leukemia
  TGI: > 100 µM
SK-MEL-2 melanoma
  TGI: > 100 µM
IGROV1 ovarian
  TGI: > 100 µM
U251 CNS
  TGI: > 100 µM
M19-MEL melanoma
  TGI: > 100 µM
K-562 leukemia
  TGI: > 100 µM
A549 NSCLC
  TGI: > 100 µM
RPMI-8226 leukemia
  TGI: > 100 µM
KM12 colon
  TGI: > 100 µM
HT29 colon
  TGI: > 100 µM
HCT-15 colon
  TGI: > 100 µM
NCI-H460 lung
  TGI: > 100 µM
HOP-62 NSCLC
  TGI: > 100 µM
DMS 114 small cell lung
  TGI: > 100 µM
HOP-18 NSCLC
  TGI: > 100 µM
OVCAR-4 ovarian
  TGI: > 100 µM
LXFL 529 NSCLC
  TGI: > 100 µM
HOP-92 NSCLC
  TGI: > 100 µM
SF-268 CNS
  TGI: > 100 µM
M14 melanoma
  TGI: > 100 µM
OVCAR-8 ovarian
  TGI: > 100 µM
SNB-78 CNS
  TGI: > 100 µM
DLD-1 colon
  TGI: > 100 µM
HCT-116 colon
  TGI: > 100 µM
EKVX NSCLC
  TGI: > 100 µM
A498 renal
  TGI: > 100 µM
MOLT-4 leukemia
  TGI: > 100 µM
ACHN renal
  TGI: > 100 µM
XF 498 CNS
  TGI: > 100 µM
OVCAR-3 ovarian
  TGI: > 100 µM
CAKI-1 renal
  TGI: > 100 µM
SF-539 CNS
  TGI: > 100 µM
NCI-H226 lung
  TGI: > 100 µM
COLO 205 colon
  TGI: > 100 µM

## COc1cc([C@H]2Oc3cc(O)c4c(=O)cc(-c5ccccc5)oc4c3O[C@@H]2CO)ccc1O
SR leukemia
  TGI: > 100 µM
SK-MEL-28 melanoma
  TGI: > 100 µM
HL-60(TB) leukemia
  TGI: > 100 µM
UO-31 renal
  TGI: 58.6 µM
SN12C renal
  TGI: > 100 µM
786-0 renal
  TGI: 61.2 µM
DMS 273 small cell lung
  TGI: > 100 µM
SNB-75 CNS
  TGI: 39 µM
NCI-H522 lung
  TGI: 72 µM
MALME-3M melanoma
  TGI: 46.3 µM
NCI-H23 lung
  TGI: 69.2 µM
SK-OV-3 ovarian
  TGI: 70.3 µM
UACC-62 melanoma
  TGI: > 100 µM
HCC-2998 colon
  TGI: > 100 µM
CCRF-CEM leukemia
  TGI: > 100 µM
SK-MEL-2 melanoma
  TGI: > 100 µM
IGROV1 ovarian
  TGI: > 100 µM
K-562 leukemia
  TGI: > 100 µM
RPMI-8226 leukemia
  TGI: > 100 µM
HCT-15 colon
  TGI: > 100 µM
HOP-62 NSCLC
  TGI: > 100 µM
DMS 114 small cell lung
  TGI: > 100 µM
OVCAR-4 ovarian
  TGI: 89.4 µM
LXFL 529 NSCLC
  TGI: 77 µM
HOP-92 NSCLC
  TGI: 58.1 µM
SF-268 CNS
  TGI: > 100 µM
M14 melanoma
  TGI: > 100 µM
DLD-1 colon
  TGI: > 100 µM
HCT-116 colon
  TGI: > 100 µM
A498 renal
  TGI: 73.4 µM
MOLT-4 leukemia
  TGI: > 100 µM
ACHN renal
  TGI: 63.8 µM
CAKI-1 renal
  TGI: 79.1 µM
SF-539 CNS
  TGI: 56.6 µM
NCI-H226 lung
  TGI: 80.1 µM
COLO 205 colon
  TGI: > 100 µM

Source: PubChem BioAssay (NCI)
